Patent US20260262643A1, “HERBICIDAL BENZOXAZINES” (FMC CORPORATION, priority 2022, published 2026)

Tests used:
rice = assay: Test D flooded paddy test; type: in vivo, Oryza sativa; conditions: 250 g ai/ha, applied to paddy water, visual rating after 13 to 14 days, scale 0 to 100 (0 no effect, 100 complete control)
Method in brief: (§1)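 Post-flood water application at the 2-leaf stage; 3 cm flood depth kept constant; visual control rating 0–100 after 13–14 days greenhouse growth.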

green foxtail [1] = assay: Test C postemergence; type: in vivo, Setaria viridis; conditions: 10 days
Method in brief: (§2)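 Seeds sown in loam soil–sand blend received a directed preemergence soil spray of test chemical in non-phytotoxic solvent with surfactant; postemergence plants (2–10 cm, one- to two-leaf stage) were sprayed with the same formulation. Greenhouse-held 10 days, then visually rated for injury versus untreated controls, 0 (no effect) to 100 (complete control).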

wheat [2] = assay: Test C postemergence; type: in vivo, Triticum aestivum; conditions: 10 days
Method in brief: as §2

corn [3] = assay: Test C postemergence; type: in vivo, Zea mays; conditions: 10 days
Method in brief: as §2

kochia [4] = assay: Test C postemergence; type: in vivo, Bassia scoparia; conditions: 10 days
Method in brief: as §2

wheat [5] = assay: Test C preemergence; type: in vivo, Triticum aestivum; conditions: for Plant response rating, Wheat: Preemergence; for Wheat plant response rating: preemergence
Method in brief: as §2

barnyardgrass [6] = assay: Test C preemergence; type: in vivo, Echinochloa crusgalli; conditions: for Plant response rating, Barnyardgrass: Preemergence; for Barnyardgrass plant response rating: preemergence
Method in brief: as §2

ragweed [7] = assay: Test C preemergence; type: in vivo, Ambrosia artemisiifolia; conditions: for Plant response rating, Ragweed: Preemergence; for Ragweed plant response rating: preemergence
Method in brief: as §2

pigweed, palmer [8] = assay: Test C preemergence; type: in vivo, Amaranthus palmeri; conditions: for Plant response rating, Pigweed, Palmer: Preemergence; for Pigweed, Palmer plant response rating: preemergence
Method in brief: as §2

ragweed [9] = assay: Test C postemergence; type: in vivo, Ambrosia artemisiifolia; conditions: 10 days
Method in brief: as §2

sedge, umbrella = assay: Test D flooded paddy test; type: in vivo, Cyperus difformis; conditions: 250 g ai/ha, applied to paddy water, visual rating after 13 to 14 days, scale 0 to 100 (0 no effect, 100 complete control)
Method in brief: as §1

blackgrass [10] = assay: Test C preemergence; type: in vivo, Alopecurus myosuroides; conditions: for Plant response rating, Blackgrass: Preemergence; for Blackgrass plant response rating: preemergence
Method in brief: as §2

ryegrass, Italian [11] = assay: Test C postemergence; type: in vivo, Lolium multiflorum; conditions: 10 days
Method in brief: as §2

pigweed, palmer [12] = assay: Test C postemergence; type: in vivo, Amaranthus palmeri; conditions: 10 days
Method in brief: as §2

green foxtail [13] = assay: Test C preemergence; type: in vivo, Setaria viridis; conditions: for Plant response rating, Foxtail, Green: Preemergence; for Foxtail, Green plant response rating: preemergence
Method in brief: as §2

barnyardgrass [14] = assay: Test D flooded paddy test; type: in vivo, Echinochloa crus-galli; conditions: 250 g ai/ha, applied to paddy water, visual rating after 13 to 14 days, scale 0 to 100 (0 no effect, 100 complete control)
Method in brief: as §1

blackgrass [15] = assay: Test C postemergence; type: in vivo, Alopecurus myosuroides; conditions: 10 days
Method in brief: as §2

soybean [16] = assay: Test C preemergence; type: in vivo, Glycine max; conditions: for Plant response rating, Soybean: Preemergence; for Soybean plant response rating: preemergence
Method in brief: as §2

ryegrass, Italian [17] = assay: Test C preemergence; type: in vivo, Lolium multiflorum; conditions: for Plant response rating, Ryegrass, Italian: Preemergence; for Ryegrass, Italian plant response rating: preemergence
Method in brief: as §2

corn [18] = assay: Test C preemergence; type: in vivo, Zea mays; conditions: for Plant response rating, Corn: Preemergence; for Corn plant response rating: preemergence
Method in brief: as §2

ducksalad = assay: Test D flooded paddy test; type: in vivo, Heteranthera limosa; conditions: 250 g ai/ha, applied to paddy water, visual rating after 13 to 14 days, scale 0 to 100 (0 no effect, 100 complete control)
Method in brief: as §1

oat, wild [19] = assay: Test C postemergence; type: in vivo, Avena fatua; conditions: 10 days
Method in brief: as §2

oat, wild [20] = assay: Test C preemergence; type: in vivo, Avena fatua; conditions: for Plant response rating, Oat, Wild: Preemergence; for Oat, Wild plant response rating: preemergence
Method in brief: as §2

horseweed = assay: Test C postemergence; type: in vivo, Erigeron canadensis; conditions: 10 days
Method in brief: as §2

galium = assay: Test C postemergence; type: in vivo, Galium aparine; conditions: 10 days
Method in brief: as §2

barnyardgrass [21] = assay: Test C postemergence; type: in vivo, Echinochloa crusgalli; conditions: 10 days
Method in brief: as §2

soybean [22] = assay: Test C postemergence; type: in vivo, Glycine max; conditions: 10 days
Method in brief: as §2

kochia [23] = assay: Test C preemergence; type: in vivo, Bassia scoparia; conditions: for Plant response rating, Kochia: Preemergence
Method in brief: as §2

[24] = 125 g ai/ha, postemergence, 0 to 100 scale, 0 no effect, 100 complete control
[25] = Postemergence, 500 g ai/ha, visual 0 to 100 scale (0 no effect, 100 complete control)
[26] = 500 g ai/ha, visual rating after 10 days, 0 to 100 scale (0 no effect, 100 complete control)
[27] = Test C, 125 g ai/ha, 0 to 100 scale (0 no effect, 100 complete control)
[28] = 500 g ai/ha, postemergence, 0 to 100 scale (0 no effect, 100 complete control)
[29] = Postemergence, 125 g ai/ha, 0 to 100 scale (0 no effect, 100 complete control)
[30] = 500 g ai/ha, 0 to 100 scale (0 no effect, 100 complete control)
[31] = 125 g ai/ha, 0 to 100 scale, 0 no effect, 100 complete control

## CC(C)c1ncn(-c2ccc([S+]([O-])C(F)(F)F)c(C(=O)N3C[C@H](C)Oc4c(Cl)cccc43)c2)n1 (stereo partly shown) [Compound 191]
rice
  Plant response rating, Rice (Flood): 0
Green foxtail [1]; [24]
  Plant response rating, Foxtail, Green: 0
Green foxtail [1]; [25]
  Plant response rating, Foxtail, Green: 0
Wheat [2]; [24]
  Plant response rating, Wheat: 10
Wheat [2]; [25]
  Plant response rating, Wheat: 10
Corn [3]; [24]
  Plant response rating, Corn: 0
Corn [3]; [25]
  Plant response rating, Corn: 0
Kochia [4]; [24]
  Plant response rating, Kochia: 20
Kochia [4]; [25]
  Plant response rating, Kochia: 20
Wheat [5]; [26]
  Plant response rating, Wheat: 0
Wheat [5]; [27]
  Wheat plant response rating: 0
Barnyardgrass [6]; [26]
  Plant response rating, Barnyardgrass: 0
Barnyardgrass [6]; [27]
  Barnyardgrass plant response rating: 0
Ragweed [7]; [26]
  Plant response rating, Ragweed: 0
Ragweed [7]; [27]
  Ragweed plant response rating: 0
pigweed, palmer [8]; [26]
  Plant response rating, Pigweed, Palmer: 0
pigweed, palmer [8]; [27]
  Pigweed, Palmer plant response rating: 0
Ragweed [9]; [24]
  Plant response rating, Ragweed: 0
Ragweed [9]; [25]
  Plant response rating, Ragweed: 0
sedge, umbrella
  Plant response rating, Sedge, Umbrella (Flood): 0
Blackgrass [10]; [26]
  Plant response rating, Blackgrass: 20
Blackgrass [10]; [27]
  Blackgrass plant response rating: 0
ryegrass, Italian [11]; [24]
  Plant response rating, Ryegrass, Italian: 0
ryegrass, Italian [11]; [25]
  Plant response rating, Ryegrass, Italian: 0
pigweed, palmer [12]; [24]
  Plant response rating, Pigweed, Palmer: 0
pigweed, palmer [12]; [25]
  Plant response rating, Pigweed, Palmer: 30
Green foxtail [13]; [26]
  Plant response rating, Foxtail, Green: 0
Green foxtail [13]; [27]
  Foxtail, Green plant response rating: 0
Barnyardgrass [14]
  Plant response rating, Barnyardgrass (Flood): 0
Blackgrass [15]; [24]
  Plant response rating, Blackgrass: 0
Blackgrass [15]; [25]
  Plant response rating, Blackgrass: 0
Soybean [16]; [26]
  Plant response rating, Soybean: 0
Soybean [16]; [27]
  Soybean plant response rating: 0
ryegrass, Italian [17]; [26]
  Plant response rating, Ryegrass, Italian: 20
ryegrass, Italian [17]; [27]
  Ryegrass, Italian plant response rating: 0
Corn [18]; [26]
  Plant response rating, Corn: 0
Corn [18]; [27]
  Corn plant response rating: 0
ducksalad
  Plant response rating, Ducksalad (Flood): 0
oat, wild [19]; [24]
  Plant response rating, Oat, Wild: 0
oat, wild [19]; [25]
  Plant response rating, Oat, Wild: 0
oat, wild [20]; [26]
  Plant response rating, Oat, Wild: 0
oat, wild [20]; [27]
  Oat, Wild plant response rating: 0
horseweed; [24]
  Plant response rating, Horseweed: 0
horseweed; [25]
  Plant response rating, Horseweed: 0
galium; [24]
  Plant response rating, Galium: 0
galium; [25]
  Plant response rating, Galium: 50
Barnyardgrass [21]; [24]
  Plant response rating, Barnyardgrass: 10
Barnyardgrass [21]; [25]
  Plant response rating, Barnyardgrass: 10
Soybean [22]; [24]
  Plant response rating, Soybean: 40
Soybean [22]; [25]
  Plant response rating, Soybean: 90
Kochia [23]; [26]
  Plant response rating, Kochia: 0

## Cc1ccc(-n2cnc(CC#N)n2)cc1C(=O)N1C[C@H](C)Oc2c(Cl)cccc21 [Compound 364]
rice
  Plant response rating, Rice (Flood): 10
Green foxtail [1]; [28]
  Plant response rating, Foxtail, Green: 90
Green foxtail [1]; [29]
  Plant response rating, Foxtail, Green: 80
Wheat [2]; [28]
  Plant response rating, Wheat: 80
Wheat [2]; [29]
  Plant response rating, Wheat: 30
Corn [3]; [28]
  Plant response rating, Corn: 50
Corn [3]; [29]
  Plant response rating, Corn: 30
Kochia [4]; [28]
  Plant response rating, Kochia: 90
Kochia [4]; [29]
  Plant response rating, Kochia: 70
Wheat [5]; [30]
  Wheat plant response rating: 40
Wheat [5]; [31]
  Plant response rating, Wheat: 0
Barnyardgrass [6]; [30]
  Barnyardgrass plant response rating: 100
Barnyardgrass [6]; [31]
  Plant response rating, Barnyardgrass: 50
Ragweed [7]; [30]
  Ragweed plant response rating: 80
Ragweed [7]; [31]
  Plant response rating, Ragweed: 20
pigweed, palmer [8]; [30]
  Pigweed, Palmer plant response rating: 100
pigweed, palmer [8]; [31]
  Plant response rating, Pigweed, Palmer: 100
Ragweed [9]; [28]
  Plant response rating, Ragweed: 80
Ragweed [9]; [29]
  Plant response rating, Ragweed: 70
sedge, umbrella
  Plant response rating, Sedge, Umbrella (Flood): 95
Blackgrass [10]; [30]
  Blackgrass plant response rating: 90
Blackgrass [10]; [31]
  Plant response rating, Blackgrass: 60
ryegrass, Italian [11]; [28]
  Plant response rating, Ryegrass, Italian: 100
ryegrass, Italian [11]; [29]
  Plant response rating, Ryegrass, Italian: 70
pigweed, palmer [12]; [28]
  Plant response rating, Pigweed, Palmer: 90
pigweed, palmer [12]; [29]
  Plant response rating, Pigweed, Palmer: 70
Green foxtail [13]; [30]
  Foxtail, Green plant response rating: 100
Green foxtail [13]; [31]
  Plant response rating, Foxtail, Green: 100
Barnyardgrass [14]
  Plant response rating, Barnyardgrass (Flood): 10
Blackgrass [15]; [28]
  Plant response rating, Blackgrass: 100
Blackgrass [15]; [29]
  Plant response rating, Blackgrass: 90
Soybean [16]; [30]
  Soybean plant response rating: 100
Soybean [16]; [31]
  Plant response rating, Soybean: 100
ryegrass, Italian [17]; [30]
  Ryegrass, Italian plant response rating: 90
ryegrass, Italian [17]; [31]
  Plant response rating, Ryegrass, Italian: 60
Corn [18]; [30]
  Corn plant response rating: 30
Corn [18]; [31]
  Plant response rating, Corn: 10
ducksalad
  Plant response rating, Ducksalad (Flood): 80
oat, wild [19]; [28]
  Plant response rating, Oat, Wild: 70
oat, wild [19]; [29]
  Plant response rating, Oat, Wild: 60
oat, wild [20]; [30]
  Oat, Wild plant response rating: 30
oat, wild [20]; [31]
  Plant response rating, Oat, Wild: 10
horseweed; [28]
  Plant response rating, Horseweed: 0
horseweed; [29]
  Plant response rating, Horseweed: 0
galium; [28]
  Plant response rating, Galium: 100
galium; [29]
  Plant response rating, Galium: 100
Barnyardgrass [21]; [28]
  Plant response rating, Barnyardgrass: 80
Barnyardgrass [21]; [29]
  Plant response rating, Barnyardgrass: 50
Soybean [22]; [28]
  Plant response rating, Soybean: 100
Soybean [22]; [29]
  Plant response rating, Soybean: 100
Kochia [23]; 500 g ai/ha, preemergence, 0 to 100 scale (0 no effect, 100 complete control)
  Kochia plant response rating: 90
Kochia [23]; [31]
  Plant response rating, Kochia: 70
